Entries after “also recorded” stand apart in the source; their conditions may differ.
How the values were obtained:
[1] = tested on: chick dorsal root ganglia; assay: Chick dorsal root ganglion cultures and neurite outgrowth; type: cell-based; conditions: 48 h
From the text: (§1) Forty-eight hours later, the number of neurite with a length greater than one DRG explant was quantitated. The number of neurites expressed in untreated DRG's was subtracted from the neurite number of Example 17—treated samples to yield Example 17—dependent specific neurite outgrowth.
as §1, with “form” for “from”, “outgrowth. Quantitative dose-dependent neurite outgrowth elicited by Example 17 is presented.” for “outgrowth.”
Dorsal root ganglia were dissected from chick embryos of ten day gestation. Whole ganglion explants were cultured on thin layer Matrigel-coated 12 well plates with Liebovitz L15 plus high glucose media supplemented with 2 mM glutamine and 10% fetal calf serum, and also containing 10 μM cytosine β-D arabinofuranoside (Ara C) at 37° C. in an environment containing 5% CO2. Twenty-four hours later, the DRGs were treated with various concentrations of nerve growth factor, immunophilin ligands or combinations of NFG plus drugs. Forty-eight hours after drug treatment, the ganglia were visualized under phase contrast or Hoffman Modulation contrast with a Zeiss Axiovert inverted microscope. Photomicrographs of the explants were made, and neurite outgrowth was quantitated. Neurites longer than the DRG diameter were counted as positive, with total number of neurites quantitated per each experimental condition. Three to four DRGs are cultured per well, and each treatment was performed in duplicate.

[2] = tested on: dopaminergic neurons; assay: MPTP model of Parkinson's Disease in mice; type: in vivo, CD1 mice
Description: FIG. 4 is a graph of [^3H]-CFT binding per μg of Striatal Membrane Protein. […] CD1 mice (25 g) were treated daily with 30 mg/kg MPTP (i.p.) for 5 days. […] After eighteen days, the mice were sacrificed, striata from 5 animals per group were pooled and processed into a washed membrane preparation. Binding of [3H]-CFT to these striated membrane preparations of various groups was quantitated to determine dopamine transporter levels on viable nerve terminals. Binding in the presence of 10 μM unlabelled CFT provided on estimate of nonspecific binding, which as subtracted from the total binding to quantitative specific [3H]-CFT bound. Binding was normalized to the protein content of the striatal membranes from each experimental group. Coronal and saggital brain sections from MPTP and drug treated animals were stained with anti-tyrosine hydroxylase (TH) Ig to quantitate striatal, medial forebrain bundle axonal and nigral levels of TH, which is indicative of functional dopaminergic neurons. […] Binding of [3H]CFT, a radioligand for the dopamine transporter, to the […] membranes was done to quantitate the level of the dopamine transporter (DAT) following lesion and drug treatment. Immunostaining was performed on saggital and coronal brain sections using anti-tyrosine hydoxylase Ig to quantitate survival and recovery of dopaminergic neurons. […]

SMILES: CCC(C)(C)C(=O)C(=O)N1CCC[C@H]1C(=O)OCCCc1cccnc1 [Example 17, 3-(3-Pyridyl)-1-propyl (2S)-1-(3,3-dimethyl-1,2-dioxopentyl)-2-pyrrolidinecarboxylate]
- EC50 ([1]; Gallus gallus, read-out: ED50, neurite outgrowth): 0.05 nM
- neurite outgrowth in sensory neuronal cultures ([1]; chick DRG explants, various concentrations): potently promotes neurite outgrowth
- recovery of [3H]-CFT binding ([2]; 40 mg/kg s.c. in addition to MPTP, striatal membranes, dopamine transporter level): greater than 90%
- recovery of TH-stained dopaminergic neurons (tyrosine hydroxylase immunostaining) ([2]; 10-40 mg/kg s.c., striatum, nigra, medial forebrain bundle, versus MPTP/Vehicle): nearly quantitative recovery; also recorded: clear and marked recovery of functional neurons

From US6500959B1, “Pyrrolidine derivatives and processes for preparing same” (GPI NIL Holdings, Inc., priority 1995, dated 2002)
